ChEMBL document CHEMBL5528002, “Identification of selective 5-LOX and FLAP inhibitors as novel anti-inflammatory agents by ligand-based virtual screening” (Eur J Med Chem, 2024)

Key:
Macrophage cell line [1] = assay: Effect on lipid mediator formation in human M1-like phenotype MDM cells by measuring 7-HDHA formation at 10 uM pre-incubated for 15 mins followed by SACM stimulation and measured after 90 mins by UPLC-MS/MS analysis relative to control; assay type: functional; conditions: time 105 min, 1.75 h
Macrophage cell line [2] = assay: Effect on lipid mediator formation in human M2-like phenotype MDM cells by measuring PDX1 formation at 10 uM pre-incubated for 15 mins followed by SACM stimulation and measured after 90 mins by UPLC-MS/MS analysis (reference value: 13 +/- 3 pg/ml); assay type: functional; conditions: time 105 min, 1.75 h
[3] = biological target: T1, Polyunsaturated fatty acid 5-lipoxygenase (Homo sapiens) (UniProt P09917); assay: Inhibition of human recombinant 5-LOX expressed in Escherichia coli BL21(DE3) assessed as enzyme remaining activity at 10 uM using arachidonic acid as substrate preincubated with compound for 15 mins followed by substrate and CaCl2 addition measured after 10 mins by RP-HPLC analysis relative to control; conditions: time 25.0 min
T1 sequence (whole entry): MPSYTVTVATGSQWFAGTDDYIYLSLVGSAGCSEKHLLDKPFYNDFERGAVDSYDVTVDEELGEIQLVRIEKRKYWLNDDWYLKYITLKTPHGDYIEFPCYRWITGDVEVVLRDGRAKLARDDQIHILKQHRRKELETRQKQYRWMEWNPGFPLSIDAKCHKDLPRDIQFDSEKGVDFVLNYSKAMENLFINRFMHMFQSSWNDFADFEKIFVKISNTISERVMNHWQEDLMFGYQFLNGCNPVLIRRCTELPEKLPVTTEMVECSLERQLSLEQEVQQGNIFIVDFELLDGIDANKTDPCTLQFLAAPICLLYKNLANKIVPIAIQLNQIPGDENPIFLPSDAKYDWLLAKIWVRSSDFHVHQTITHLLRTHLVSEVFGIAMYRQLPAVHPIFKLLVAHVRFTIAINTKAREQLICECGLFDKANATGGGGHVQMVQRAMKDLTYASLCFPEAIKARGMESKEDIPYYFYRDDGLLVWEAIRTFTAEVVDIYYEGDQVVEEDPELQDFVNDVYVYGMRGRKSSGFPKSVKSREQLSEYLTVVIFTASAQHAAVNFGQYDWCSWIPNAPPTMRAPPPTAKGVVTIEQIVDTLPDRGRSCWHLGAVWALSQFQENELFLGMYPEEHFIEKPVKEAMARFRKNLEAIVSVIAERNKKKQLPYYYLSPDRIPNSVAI

Macrophage cell line [4] = assay: Effect on lipid mediator formation in human M1-like phenotype MDM cells by measuring PGF2alpha formation at 10 uM pre-incubated for 15 mins followed by SACM stimulation and measured after 90 mins by UPLC-MS/MS analysis (reference value: 471 +/- 100 pg/ml); assay type: functional; conditions: time 105 min, 1.75 h
Macrophage cell line [5] = assay: Effect on lipid mediator formation in human M1-like phenotype MDM cells by measuring TXB2 formation at 10 uM pre-incubated for 15 mins followed by SACM stimulation and measured after 90 mins by UPLC-MS/MS analysis (reference value: 8866 +/- 2561 pg/ml); assay type: functional; conditions: time 105 min, 1.75 h
Macrophage cell line [6] = assay: Effect on lipid mediator formation in human M1-like phenotype MDM cells by measuring arachidonic acid formation at 10 uM pre-incubated for 15 mins followed by SACM stimulation and measured after 90 mins by UPLC-MS/MS analysis relative to control; assay type: functional; conditions: time 105 min, 1.75 h
Macrophage cell line [7] = assay: Effect on lipid mediator formation in human M1-like phenotype MDM cells by measuring EPA formation at 10 uM pre-incubated for 15 mins followed by SACM stimulation and measured after 90 mins by UPLC-MS/MS analysis relative to control; assay type: functional; conditions: time 105 min, 1.75 h
Macrophage cell line [8] = assay: Effect on lipid mediator formation in human M2-like phenotype MDM cells by measuring RvD2 formation at 10 uM pre-incubated for 15 mins followed by SACM stimulation and measured after 90 mins by UPLC-MS/MS analysis relative to control; assay type: functional; conditions: time 105 min, 1.75 h
Macrophage cell line [9] = assay: Effect on lipid mediator formation in human M1-like phenotype MDM cells by measuring PGD2 formation at 10 uM pre-incubated for 15 mins followed by SACM stimulation and measured after 90 mins by UPLC-MS/MS analysis (reference value: 46 +/- 15 pg/ml); assay type: functional; conditions: time 105 min, 1.75 h
Macrophage cell line [10] = assay: Effect on lipid mediator formation in human M2-like phenotype MDM cells by measuring PGE2 formation at 10 uM pre-incubated for 15 mins followed by SACM stimulation and measured after 90 mins by UPLC-MS/MS analysis (reference value: 159 +/- 24 pg/ml); assay type: functional; conditions: time 105 min, 1.75 h
[11] = biological target: T1, Polyunsaturated fatty acid 5-lipoxygenase (Homo sapiens); assay: Inhibition of 5-LOX in human Neutrophil at 10 uM preincubated with compound for 15 mins followed by A23187 addition measured after 10 mins by RP-HPLC analysis relative to control; assay type: cell-based; conditions: time 25.0 min
Macrophage cell line [12] = assay: Effect on lipid mediator formation in human M2-like phenotype MDM cells by measuring MaR1 formation at 10 uM pre-incubated for 15 mins followed by SACM stimulation and measured after 90 mins by UPLC-MS/MS analysis (reference value: 76 +/- 18 pg/ml); assay type: functional; conditions: time 105 min, 1.75 h
Macrophage cell line [13] = assay: Effect on lipid mediator formation in human M1-like phenotype MDM cells by measuring 17-HDHA formation at 10 uM pre-incubated for 15 mins followed by SACM stimulation and measured after 90 mins by UPLC-MS/MS analysis (reference value: 360 +/- 89 pg/ml); assay type: functional; conditions: time 105 min, 1.75 h
Macrophage cell line [14] = assay: Effect on lipid mediator formation in human M2-like phenotype MDM cells by measuring t-LTB4 formation at 10 uM pre-incubated for 15 mins followed by SACM stimulation and measured after 90 mins by UPLC-MS/MS analysis (reference value: 426 +/- 49 pg/ml); assay type: functional; conditions: time 105 min, 1.75 h
Macrophage cell line [15] = assay: Effect on lipid mediator formation in human M2-like phenotype MDM cells by measuring LTB4 formation at 10 uM pre-incubated for 15 mins followed by SACM stimulation and measured after 90 mins by UPLC-MS/MS analysis relative to control; assay type: functional; conditions: time 105 min, 1.75 h
Macrophage cell line [16] = assay: Effect on lipid mediator formation in human M1-like phenotype MDM cells by measuring 5,15-diHETE formation at 10 uM pre-incubated for 15 mins followed by SACM stimulation and measured after 90 mins by UPLC-MS/MS analysis relative to control; assay type: functional; conditions: time 105 min, 1.75 h
Macrophage cell line [17] = assay: Effect on lipid mediator formation in human M2-like phenotype MDM cells by measuring 5-HETE formation at 10 uM pre-incubated for 15 mins followed by SACM stimulation and measured after 90 mins by UPLC-MS/MS analysis relative to control; assay type: functional; conditions: time 105 min, 1.75 h
Macrophage cell line [18] = assay: Effect on lipid mediator formation in human M2-like phenotype MDM cells by measuring 7-HDHA formation at 10 uM pre-incubated for 15 mins followed by SACM stimulation and measured after 90 mins by UPLC-MS/MS analysis relative to control; assay type: functional; conditions: time 105 min, 1.75 h
Macrophage cell line [19] = assay: Effect on lipid mediator formation in human M1-like phenotype MDM cells by measuring 12-HETE formation at 10 uM pre-incubated for 15 mins followed by SACM stimulation and measured after 90 mins by UPLC-MS/MS analysis (reference value: 181 +/- 39 pg/ml); assay type: functional; conditions: time 105 min, 1.75 h
Macrophage cell line [20] = assay: Effect on lipid mediator formation in human M1-like phenotype MDM cells by measuring 5,15-diHETE formation at 10 uM pre-incubated for 15 mins followed by SACM stimulation and measured after 90 mins by UPLC-MS/MS analysis (reference value: 122 +/- 58 pg/ml); assay type: functional; conditions: time 105 min, 1.75 h

SMILES | Activity (Macrophage cell line [1]) [%] | Activity (Macrophage cell line [2]) [pg/mL] | Activity [3] [%] | Activity (Macrophage cell line [4]) [pg/mL] | Activity (Macrophage cell line [5]) [pg/mL] | Activity (Macrophage cell line [6]) [%] | Activity (Macrophage cell line [7]) [%] | Activity (Macrophage cell line [8]) [%] | Activity (Macrophage cell line [9]) [pg/mL] | Activity (Macrophage cell line [10]) [pg/mL] | inhibition [11] [%] | Activity (Macrophage cell line [12]) [pg/mL] | Activity (Macrophage cell line [13]) [pg/mL] | Activity (Macrophage cell line [14]) [pg/mL] | Activity (Macrophage cell line [15]) [%] | Activity (Macrophage cell line [16]) [%] | Activity (Macrophage cell line [17]) [%] | Activity (Macrophage cell line [18]) [%] | Activity (Macrophage cell line [19]) [pg/mL] | Activity (Macrophage cell line [20]) [pg/mL]
Oc1ccc(CCC2CCC(c3ccc(O)cc3)CO2)cc1 (stereo not given) | 38 | 15 | 96.5 | 331 | 8319 | 108 | 113 | 96 | 40 | 234 | > 50 | 81 | 485 | 84 | 14 | 30 | 25 | 116 | 158 | 37
COc1ccc(C2=C/C(=C/c3ccc(O)cc3O)C(=O)O2)cc1 | 31 | 18 | 84.5 | 419 | 8338 | 116 | 136 | 112 | 72 | 412 | > 50 | 144 | 380 | 48 | 4 | 13 | 9 | 121 | 157 | 16
